Data reported in patent publication US20240174714A1, “TREATMENT OF SKIN DISORDERS” (priority 2021, published 2024).
≈ marks a conversion by molar mass, not a printed value. Square brackets hold non-standard residues; d marks the D form. Peptide text beside a SMILES is read from it. * marks the point of attachment. NH(1-CH2NMe2-cBu) = CN(C)CC1(N*)CCC1; Benzoyl(4-F) = O=C(c1ccc(F)cc1)*; hCha = N[C@@H](CCC1CCCCC1)C(=O)O; Aib = CC(C)(N)C(=O)O; βAla = NCCC(=O)O

Tests used:
[1] = test system: Staphylococcus aureus NARSA VRS2; assay: microbe, parasite or virus in culture; assay type: cell-based
[2] = test system: Staphylococcus aureus ATCC 29213; assay: MIC broth microdilution, method 1; assay type: cell-based; conditions: CAMHB II, 1 day at 36° C., 6027 acetate
physchem = conditions: water
[3] = test system: Staphylococcus aureus ATCC BAA-1717; assay: microbe, parasite or virus in culture; assay type: cell-based; conditions: ATCC BAA-1717, Methicillin resistant; CAMHB II, 1 day at 36° C.; 6027 acetate
[4] = after 48 hours; donor 0.1% 6027 in DMSO; acceptor PBS + 2% Volpo; % of total 6027
Method: The ears were washed with tap water and the hairs were removed with an electric clipper. The skin was separated from the underlying cartilage from the backside of the ear by using a scalpel. After washing the skin again, it was stored in aluminium foil at −20° C. for no longer than one month.
After thawing the frozen skin, it was cut into adequate circles and the skin thickness was measured with a calliper. The skin was mounted into the FDC, tightly sealed with Teflon band and fixed in special designed holder. Then the acceptor compartment was equipped with a magnetic stirrer, filled with placebo formulation and equilibrated for one hour. To check the barrier integrity and to be sure that there are no invisible damages from skin preparation TEWL (transepidermal water loss) was measured. The FDCs were then placed in the water bath +32° C. ±1 over a magnetic stirrer (500 rpm). Due to differences of each FDC, the skin application area for drug permeation was measured and calculated for each cell in advance. Consequently, the amount of 6027 for the donor compartment had to be adjusted for the infinite-dose experiment to 284.1 μL/cm^2.
At predefined time points 50 μL samples were taken from the acceptor compartment. The missing volume was replaced with the corresponding placebo formulation.
At the end of the permeation experiment and before reassembling the FDCs, the donor compartments were washed out with 10 mL ACN:H2O (55:45).
To extract 6027 from the skin, the frozen skin was cut into small pieces and grinded by a cryogenic grinder Freezer/Mill® from Spex SamplePrep (Metuchen, USA). The setting was 10 min precooling and a rate of 10 CPS for 4 cycles with 2 minutes. The resulting powder was resuspended in 2 mL ACN:H2O (55:45). After being vortex, the mixtures were ultrasonicated with Branson Sonifier 250 (model: 101-cx03-197) from Branson Ultrasonics Corporation (Danbury, USA). The setting for ultrasonification was output control 2 and duty cycle 30% for 60 seconds. […]
The concentrations of 6027 were determined by using HPLC-MS from Agilent Technologies. […]

[5] = test system: Staphylococcus epidermidis ATCC 12228; assay: MIC broth microdilution, method 1; assay type: cell-based; conditions: 6027 acetate
[6] = test system: Staphylococcus aureus ATCC 43300, MRSA; assay type: cell-based; conditions: ATCC 43300, 18 h
Method: The antibacterial activity of inventive compounds was evaluated in duplicate in a further Minimum Inhibitory Concentration (MIC) assay.
Bacteria were cultured in Cation-adjusted Mueller Hinton broth (CAMHB) at 37° C. overnight. A sample of each culture was then diluted 40-fold in fresh broth and incubated at 37° C. for 1.5-3 h. The resultant mid-log phase cultures were diluted (CFU/mL measured by OD600), then added to each well of the compound containing plates, giving a cell density of 5×10^5 CFU/mL and a total volume of 50 μL. All the plates were covered and incubated at 37° C. for 18 h without shaking.
Samples were prepared in DMSO and serially diluted 2 fold 8 times. Each sample concentration was prepared in 384-well plates, non-binding surface plate (NBS; Corning 3640) for the bacterial strain ATCC 43300, MRSA. The final DMSO concentration was at a maximum of 0.5%.
Inhibition of bacterial growth was determined measuring absorbance at 600 nm (OD600), using a Tecan M1000 Pro monochromator plate reader. The percentage of growth inhibition was calculated for each well, using the negative control (media only) and positive control (bacteria without inhibitors) on the same plate as references. […] Vancomycin was used as positive bacterial inhibitor standards.

[7] = test system: Staphylococcus aureus NARSA NRS22; assay: microbe, parasite or virus in culture; assay type: cell-based
[8] = test system: Staphylococcus aureus ATCC BAA-1556; assay: microbe, parasite or virus in culture; assay type: cell-based; conditions: ATCC BAA-1556
[9] = test system: Staphylococcus aureus ATCC 33591; assay: microbe, parasite or virus in culture; assay type: cell-based; conditions: ATCC 33591, Methicillin resistant; 6027 acetate
[10] = test system: Staphylococcus aureus ATCC BAA-1556, USA300 MRSA; assay: microbe, parasite or virus in culture; assay type: cell-based; conditions: ATCC BAA-1556
Method: Pre-formulated compound solution was diluted in 100% DMSO to prepare a 1.6 mg/mL working stock solution. […] The concentration range was 0.032 to 32 μg/mL.

[11] = test system: axenic Leishmania donovani MHOM-ET-67/L82 amastigotes; assay: In vitro antiprotozoal assay, axenic amastigotes; assay type: cell-based; conditions: axenic amastigotes; read-out: L.don.ax. IC50
Method: The testing of the inventive compounds against Leishmania donovani (strain MHOM/ET/67/L82) was performed in 96 well plates at concentrations in serial dilutions. Tests were done in triplicate.

[12] = test system: Staphylococcus aureus NARSA NRS127; assay: microbe, parasite or virus in culture; assay type: cell-based; conditions: NARSA NRS127

CC(C)C[C@H](NC(=O)[C@H](CCC1CCCCC1)NC(=O)[C@@H]1CCCN1C(=O)c1ccc(F)cc1)C(=O)NC(C)(C)C(=O)N[C@@H](CC(C)C)C(=O)N[C@@H](CC(C)C)C(=O)NC(C)(C)C(=O)NC(C)(C)C(=O)NCCC(=O)NC1(CN(C)C)CCC1 [Compound 6027, (2S)-2-[(2S)-4-cyclohexyl-2-{[(2S)-1-(4-fluorobenzoyl)pyrrolidin-2-yl]formamido}butanamido]-N-(1-{[(1S)-1-{[(1S)-1-({1-[(1-{[2-({1-[(dimethylamino)methyl]cyclobutyl}carbamoyl)ethyl]carbamoyl}-1-methylethyl)carbamoyl]-1-methylethyl}carbamoyl)-3-methylbutyl]carbamoyl}-3-methylbutyl]carbamoyl}-1-methylethyl)-4-methylpentanamide] ({Benzoyl(4-F)}-P[hCha]L[Aib]LL[Aib][Aib][βAla]-{NH(1-CH2NMe2-cBu)})
MIC of 6027 [1]: 2 mg/L | MIC of 6027 [2]: 1 mg/L | solubility (physchem): 0.022 mg/mL (≈ 18.6 µM) | MIC of 6027 [3]: 1 mg/L | Acceptor (%) [4]: 0.2% | Donor (%) [4]: 79% | Skin extraction (%) (skin penetration) [4]: 16% | MIC of 6027 [5]: 2 mg/L | MIC [6]: 2 mg/L (≈ 1.69 µM) | MIC of 6027 [7]: 2 mg/L | MIC of 6027 [8]: 2 mg/L | MIC of 6027 [9]: 4 mg/L | MIC [10]: 1 mg/L (≈ 0.847 µM) | IC50 [11]: 5.7 nM | MIC of 6027 [12]: 2 mg/L
